Patent US20230045421A1 (priority 2018, published 2023)
Read-outs that look alike come from different tables or passages of the source.

Test system: HBV rcDNA
Experiment: HepDE19 assay with bDNA quantitation of HBV rcDNA
Type: cell-based, hepatitis B virus
In short: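 Compounds, top concentration 25 μM in 8-point duplicate series, were applied to Tet-free HepDE19 cultures for 7 days. Branched-DNA quantitation of HBV rcDNA against untreated wells gave EC50 and EC90 by 4-parameter fit. Viability (CC50) came from ATP luminescence on parallel plates incubated 4 days.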

[1] = read-out: DE-19bDNA EC50, HepDE19 assay, inhibition of formation of relaxed circular DNA (rcDNA), bDNA quantitation
[2] = Hepatitis B virus, HepDE19, read-out: DE-19bDNA EC50 (μM), HepDE19 assay, inhibition of formation of relaxed circular DNA (rcDNA), bDNA quantitation
[3] = Hepatitis B virus, HepDE19, HepDE19 assay, inhibition of formation of rcDNA, read-out: DE-19bDNA EC50
[4] = HepDE19 assay, inhibition of formation of rcDNA, read-out: DE-19bDNA EC50
[5] = HepDE19 assay, inhibition of formation of relaxed circular DNA (rcDNA), bDNA quantitation, read-out: DE-19bDNA EC50

## CC(c1c[nH]c(=O)c2cc(F)c(F)cc12)N(C)C(=O)Nc1ccccc1F (single isomer, unassigned) [Compound 421, 1-(1-(6,7-Difluoro-1-oxo-1,2-dihydroisoquinolin-4-yl)ethyl)-3-(2-fluorophenyl)-1-methylurea]
[1]
  EC50: 17 µM

## CC(c1c[nH]c(=O)c2c(F)c(F)ccc12)N(C)C(=O)Nc1ccccc1 (single isomer, unassigned) [Compound 437, 1-(1-(7,8-difluoro-1-oxo-1,2-dihydroisoquinolin-4-yl)ethyl)-1-methyl-3-phenylurea]
[1]
  EC50: 0.14 µM

## CC(NC(=O)Nc1ccc(F)c(C#N)c1)c1c[nH]c(=O)c2cc(F)c(F)cc12 (stereo not drawn) [Compound 495, 1-(3-Cyano-4-fluorophenyl)-3-(1-(6,7-difluoro-1-oxo-1,2-dihydroisoquinolin-4-yl)ethyl)urea]
[2]
  EC50: 0.33 µM

## CC(c1c[nH]c(=O)c2ccccc12)N(CC1CCOCC1)C(=O)Nc1ccc(F)c(Cl)c1 (racemic) [Compound 134, 3-(3-chloro-4-fluorophenyl)-1-(1-(1-oxo-1,2-dihydroisoquinolin-4-yl)ethyl)-1-((tetrahydro-2H-pyran-4-yl)methyl)urea]
[3]
  EC50: 0.07 µM

## CC(c1c[nH]c(=O)c2ccccc12)N(C[C@@H](C)O)C(=O)Nc1ccc(F)c(Cl)c1 (single isomer, unassigned) [Compound 215]
[4]
  EC50: 23 µM

## CCCCN(Cc1cnc(OC)c2ccccc12)C(=O)Nc1ccc(F)c(Cl)c1 [Compound 33, 1-Butyl-3-(3-chloro-4-fluorophenyl)-1-((1-methoxyisoquinolin-4-yl)methyl)urea]
[3]
  EC50: 0.62 µM

## CC(c1c[nH]c(=O)c2c(F)c(F)ccc12)N(C)C(=O)NCc1ccc(F)cc1 (single isomer, unassigned) [Compound 491, 1-(1-(7,8-Difluoro-1-oxo-1,2-dihydroisoquinolin-4-yl)ethyl)-3-(4-fluorobenzyl)-1-methylurea]
[5]
  EC50: 21 µM

## CC(c1c[nH]c(=O)c2cc(F)ccc12)N(C)C(=O)Nc1ccc(F)cc1 (racemic) [Compound 258, 3-(4-Fluorophenyl)-1-(1-(7-fluoro-1-oxo-1,2-dihydroisoquinolin-4-yl)ethyl)-1-methylurea]
[3]
  EC50: 0.15 µM

## CC(c1c[nH]c(=O)c2ccccc12)N(CC1COC(C)(C)OC1)C(=O)Nc1ccc(F)cc1 (single isomer, unassigned) [Compound 274, 3-(4-Fluorophenyl)-1-((2,2-dimethyl-1,3-dioxan-5-yl)methyl)-1-(1-(1-oxo-1,2-dihydroisoquinolin-4-yl)ethyl)urea]
[3]
  EC50: 1.8 µM

## CC(c1c[nH]c(=O)c2ccccc12)N(Cc1ccncn1)C(=O)Nc1ccc(F)c(Cl)c1 (single isomer, unassigned) [Compound 321, 3-(3-Chloro-4-fluorophenyl)-1-(1-(1-oxo-1,2-dihydroisoquinolin-4-yl)ethyl)-1-(pyrimidin-4-ylmethyl)urea]
[5]
  EC50: 19 µM

## CC(C)CN(C(=O)Nc1ccc(F)cc1)C(C)c1cnc(-n2cncn2)c2ccccc12 (racemic) [Compound 301, 1-(1-(1-(1H-1,2,4-Triazol-1-yl)isoquinolin-4-yl)ethyl)-3-(4-fluorophenyl)-1-isobutylurea]
Hepatitis B virus, HepDE19, HepDE19 assay, inhibition of formation of relaxed circular DNA (rcDNA), bDNA quantitation, read-out: DE-19bDNA EC50
  EC50: 0.051 µM

## CC(c1cn(C(C)C)c(=O)c2ccccc12)N(C)C(=O)Nc1ccc(F)c(Cl)c1 (single isomer, unassigned) [Compound 187, 3-(3-Chloro-4-fluorophenyl)-1-(1-(2-isopropyl-1-oxo-1,2-dihydroisoquinolin-4-yl)ethyl)-1-methylurea]
[4]
  EC50: 0.14 µM

## CC(c1c[nH]c(=O)c2ccccc12)N(CCS(N)(=O)=O)C(=O)Nc1ccc(F)c(Cl)c1 (single isomer, unassigned) [Compound 120, 2-(3-(3-Chloro-4-fluorophenyl)-1-(1-(1-oxo-1,2-dihydroisoquinolin-4-yl)ethyl)ureido) ethanesulfonamide]
[4]
  EC50: 18 µM

## COc1ncc(C(C)N(CCCO)C(=O)Nc2ccc(F)c(Cl)c2)c2ccccc12 (single isomer, unassigned) [Compound 140, 3-(3-Chloro-4-fluorophenyl)-1-(3-hydroxypropyl)-1-(1-(1-methoxyisoquinolin-4-yl)ethyl)urea]
[3]
  EC50: 0.23 µM

## CCCn1cc(C(C)N(C)C(=O)Nc2ccc(F)c(Cl)c2)c2ccccc2c1=O (single isomer, unassigned) [Compound 185, 3-(3-Chloro-4-fluorophenyl)-1-methyl-1-(1-(1-oxo-2-propyl-1,2-dihydroisoquinolin-4-yl)ethyl)urea]
[4]
  EC50: 0.34 µM

## CC(c1c[nH]c(=O)c2cnccc12)N(CCCO)C(=O)Nc1ccc(F)c(Cl)c1 (single isomer, unassigned) [Compound 252, 3-(3-Chloro-4-fluorophenyl)-1-(3-hydroxypropyl)-1-(1-(1-oxo-1,2-dihydro-2,7-naphthyridin-4-yl)ethyl)urea]
[4]
  EC50: 0.052 µM

## CC(c1c[nH]c(=O)c2cc(F)c(F)cc12)N(C)C(=O)Nc1cc(Cl)c(F)c(Cl)c1 (single isomer, unassigned) [Compound 438, 3-(3,5-Dichloro-4-fluorophenyl)-1-(1-(6,7-difluoro-1-oxo-1,2-dihydroisoquinolin-4-yl)ethyl)-1-methylurea]
[5]
  EC50: 6.5 µM

## CC(c1c[nH]c(=O)c2ccccc12)N(CCCC(=O)O)C(=O)Nc1ccc(F)c(Cl)c1 (single isomer, unassigned) [Compound 227, 4-(3-(3-Chloro-4-fluorophenyl)-1-(1-(1-oxo-1,2-dihydroisoquinolin-4-yl)ethyl)ureido)butanoic acid]
[4]
  EC50: 4.9 µM

## CC(c1cnc(OCc2nc[nH]n2)c2ccccc12)N(C)C(=O)Nc1ccc(F)c(Cl)c1 (single isomer, unassigned) [Compound 145, 1-(1-(1-((1H-1,2,4-Triazol-3-yl)methoxy)isoquinolin-4-yl)ethyl)-3-(3-chloro-4-fluorophenyl)-1-methylurea]
[4]
  EC50: 4.2 µM

## CC(c1c[nH]c(=O)c2ccccc12)N(Cc1ccncc1)C(=O)Nc1ccc(F)c(Cl)c1 (single isomer, unassigned) [Compound 308, 3-(3-Chloro-4-fluorophenyl)-1-(1-(1-oxo-1,2-dihydroisoquinolin-4-yl)ethyl)-1-(pyridin-4-ylmethyl) urea]
[5]
  EC50: 0.13 µM

## CC(c1cn(C)c(=O)c2ccccc12)N(C)C(=O)Nc1ccc(F)c(Cl)c1 (single isomer, unassigned) [Compound 181, 3-(3-Chloro-4-fluorophenyl)-1-methyl-1-(1-(2-methyl-1-oxo-1,2-dihydroisoquinolin-4-yl)ethyl)urea]
[4]
  EC50: 1.8 µM

## CC(c1cnc(OCc2ncn(C)n2)c2cc(F)c(F)cc12)N(CCCO)C(=O)Nc1ccc(F)c(Cl)c1 (single isomer, unassigned) [Compound 348, 3-(3-chloro-4-fluorophenyl)-1-(1-(6,7-difluoro-1-((1-methyl-1H-1,2,4-triazol-3-yl)methoxy)isoquinolin-4-yl)ethyl)-1-(3-hydroxypropyl)urea]
[5]
  EC50: 1.1 µM

## CC(c1c[nH]c(=O)c2c(F)c(F)ccc12)N(C)C(=O)Nc1ccccc1F (single isomer, unassigned) [Compound 457, 1-(1-(7,8-Difluoro-1-oxo-1,2-dihydroisoquinolin-4-yl)ethyl)-3-(2-fluorophenyl)-1-methylurea]
[2]
  EC50: 0.74 µM

## O=C(Nc1ccc(F)c(Cl)c1)N(CCO)Cc1c[nH]c(=O)c2ccccc12 [Compound 27, 3-(3-Chloro-4-fluorophenyl)-1-(2-hydroxyethyl)-1-((1-oxo-1,2-dihydroisoquinolin-4-yl)methyl)urea]
[3]
  EC50: 1 µM

## CCn1cc(C(C)N(C)C(=O)Nc2ccc(F)c(Cl)c2)c2ccccc2c1=O (single isomer, unassigned) [Compound 184, 3-(3-Chloro-4-fluorophenyl)-1-(1-(2-ethyl-1-oxo-1,2-dihydroisoquinolin-4-yl)ethyl)-1-methylurea]
[4]
  EC50: 0.09 µM

## CCN(C(=O)Nc1ccc(F)c(F)c1)C(C)c1c[nH]c(=O)c2cc(F)c(F)cc12 (single isomer, unassigned) [Compound 423, 1-(1-(6,7-Difluoro-1-oxo-1,2-dihydroisoquinolin-4-yl)ethyl)-3-(3,4-difluorophenyl)-1-ethylurea]
[5]
  EC50: 0.021 µM

## CC(c1cn(C)c(=O)c2cc(F)c(F)cc12)N(C)C(=O)Nc1ccc(F)c(Cl)c1 (single isomer, unassigned) [Compound 340, 3-(3-Chloro-4-fluorophenyl)-1-(1-(6,7-difluoro-2-methyl-1-oxo-1,2-dihydroisoquinolin-4-yl)ethyl)-1-methylurea]
[5]
  EC50: 4.6 µM

## CC(=O)NCCN(C(=O)Nc1ccc(F)c(Cl)c1)C(C)c1c[nH]c(=O)c2ccccc12 (single isomer, unassigned) [Compound 139, N-(2-(3-(3-Chloro-4-fluorophenyl)-1-(1-(1-oxo-1,2-dihydroisoquinolin-4-yl)ethyl)ureido)ethyl)acetamide]
[4]
  EC50: 0.46 µM

## CC(c1cn(Cc2c[nH]nn2)c(=O)c2ccccc12)N(C)C(=O)Nc1ccc(F)c(Cl)c1 (single isomer, unassigned) [Compound 277, 1-(1-(2-((1H-1,2,3-Triazol-4-yl)methyl)-1-oxo-1,2-dihydroisoquinolin-4-yl)ethyl)-3-(3-chloro-4-fluorophenyl)-1-methylurea]
[4]
  EC50: 0.79 µM

## [2H]C([2H])([2H])N(C(=O)Nc1ccc(F)c(Cl)c1)C(C)c1c[nH]c(=O)c2cc(F)c(F)cc12 (single isomer, unassigned) [Compound 472, 3-(3-Chloro-4-fluorophenyl)-1-(1-(6,7-difluoro-1-oxo-1,2-dihydroisoquinolin-4-yl)ethyl)-1-(methyl-d3)urea]
[2]
  EC50: 0.007 µM
